We go through 14 molecules from article PMC3859510 (PLoS ONE, 2013).

Data set [1] has as its system infectious HCV JFH-1/CS-N6 in Huh 7.5.1 cells. Nature of the data set: microbe, parasite or virus in culture. Format: cell-based, hepatitis C virus (HCV). The conditions noted are these: for SI: HCVcc system, CC50/EC50; for EC50: 3 days, qRT-PCR, mean ± SD, four independent experiments. The method, then:
The highly infectious HCV JFH-1/CS-N6 described by Delgrange et al was used for the antiviral assays. A total of 7.2×10^3 Huh 7.5.1 cells per well of a 96-well cell culture plate were incubated with the virus at specific infectivity of about 400 (400 HCV RNA copies per foci-forming unit) and at the same time with serial dilutions of compounds. Following 3 days of incubation, medium was removed and cells were washed once and lysed to extract the intracellular RNA with the RNeasy kit (Qiagen). HCV RNA was quantified by means of qRT-PCR [25].
A qRT-PCR mixture contained: cellular RNA extract, HCV JFH-1 forward primer SF-JFH86 [5′-[…]-3′], reverse primer SR-JFH194 [5′-[…]-3′], and probe [5′-FAM-[…]-TAMRA-3′], was performed at 50°C for 30 min, subsequent 15 min at 95°C and PCR amplification of 40 cycles of denaturation at 94°C for 20 s and annealing and extension at 60°C for 1 min in an ABI 7500 Taqman (Live Technologies).
For orientation: In qPCR the cycle at which signal appears reflects the starting amount.

In data set [2] the test system is HCV replicons I389luc-ubi-neo/NS3-3′/5.1 (Huh 5-2), genotype 1b subgenomic replicon. Nature of the data set: Antiviral assay in HCV replicon cells (Huh 5-2, firefly luciferase). Format: cell-based, hepatitis C virus (HCV). The conditions noted are these: for EC50: Hepatitis C virus, read-out: EC50 (50% effective concentration), HCV replicon replication, Huh 5-2 subgenomic replicon (genotype 1b), firefly luciferase, mean ± SD, four independent experiments; for fold-change of EC50 with Hemin (5 µM) (value between brackets): Huh 5-2 replicon, potentiation by Hemin 5 µM. As to the method:
Cells carrying HCV replicons I389luc-ubi-neo/NS3-3′/5.1 (Huh 5-2) were kindly provided by Prof. R. Bartenschlager (University of Heidelberg, Germany). Cells were cultured in Dulbecco’s modified Eagle’s Medium (DMEM, Gibco, Merelbeke, Belgium) supplemented with 10% heat-inactivated fetal bovine serum (Integro, Zaandam, The Netherlands), 1× non-essential amino acids, 100 IU/mL penicillin (Gibco), 100 µg/mL streptomycin (Gibco), and 250 µg/mL G418. Cell cultures were maintained at 37°C with 5% CO2.
(§1) The antiviral assay was performed as described, [22]. Briefly, cells were seeded at a density of 5×10^3 cells per well in 96-well cell culture plates in DMEM containing 250 µg/mL G418 at 37°C (5% CO2). After 24 hours of incubation, medium was replaced with fresh DMEM (without G418) and serial dilutions of the test compounds. Replicon RNA levels were determined by a quantitative reverse transcription polymerase chain reaction (qRT-PCR) or quantified by measuring the firefly luciferase activity in 96-well cell culture plates (Safire, Tecan, Austria).

Data set [3] can be described thus: Cytostatic assay (MTS/PMS) in Huh 5-2 cells. In kind it is cell-based. The conditions noted are these: human, three days. The method, then:
(§2) Cells were seeded at a density of 5×10^3 or 7.2×10^3 cells per well in a 96-well plate in complete DMEM in serial dilutions of the test compounds for Huh 5-2 and Huh 7.5.1 cells, respectively. After three days of incubation, cell viability was determined by MTS/PMS method (Promega).

The nature of data set [4]: Cytostatic assay (MTS/PMS) in Huh 7.5.1 cells. In kind it is cell-based. The conditions noted are these: human. As to the method:
as §2

In data set [5] the test system is Huh 7.5.1 cells. Nature of the data set: Cytostatic assay (MTS/PMS) in Huh 7.5.1 cells. Format: cell-based. The method, then:
as §2

Data set [6] has as its system HCV replicon in Huh 5-2 cells. In words: Drug combination studies (checker-board, Prichard and Shipman) in the HCV replicon system. In kind it is cell-based, hepatitis C virus (HCV). The note with it: Figure S2. The method, then:
as §1
The effects of drug combinations were evaluated in a checker-board format using the method of Prichard and Shipman. The theoretical additive effect was calculated from the dose–response curves of individual compounds by the equation Z = X+Y(1−X), where X represents the inhibition produced by first compound alone and Y the inhibition by the second compound alone. Z represents the effect produced by the combination of the first with the second compound. The theoretical additive surface is subtracted from the actual experimental surface, resulting in a horizontal surface that equals the zero plane when the combination is additive. A surface that lies above the zero plane indicates a synergistic effect of the combination, and a surface below the zero plane indicates an antagonism. […]
Background: Replicon systems follow genome replication, usually without infectious particles.

Where [7] appears, read: Hepatitis C virus, Huh-7.5.1, 72 h, read-out: EC50 (50% effective concentration), replication of HCVcc, infectious HCV JFH-1 in Huh 7.5.1.
Setting [8] is: Huh 7.5.1 hepatoma cells, three days, MTS/PMS.
[9] abbreviates: read-out: EC50 (50% effective concentration), replication of HCVcc, infectious HCV JFH-1 in Huh 7.5.1.

Read-outs that look alike come from different tables or passages of the source. Some results are limits rather than exact numbers.

In turn, `C[C@@H]1CCC2[C@@H](C)[C@H](OCc3ccc(CO)cc3)OC3O[C@@]4(C)CCC1[C@]32OO4` (some centres unmarked) [AJ-001] had an SI in data set [1] greater than 5. For the same molecule, the EC50 in data set [1] (setting [7]) was 26 ± 5 µM; in data set [2], 8.8 ± 2.7 µM. The “fold-change of EC50 with Hemin (5 µM) (value between brackets)” value (from here on “fold-change of EC50 with Hemin (5 µM)”) in data set [2] worked out at 2 fold. The CC50 at 3 days in data set [3] and in data set [4] (setting [8]) was greater than 133 µM in each case.
As for `C[C@@H]1CCC2[C@@H](C)[C@H](OCc3ccc(C=O)cc3)OC3O[C@@]4(C)CCC1[C@]32OO4` (some centres unmarked) [AJ-002], the SI in data set [1] was greater than 8. The EC50 in data set [1] (setting [7]) is 15 ± 2 µM; in data set [2], 30 ± 8 µM. Moreover, in data set [2], the “fold-change of EC50 with Hemin (5 µM)” value stood at 15 fold. The CC50 at 3 days in data set [3] and in data set [4] (setting [8]) was greater than 133 µM in each case.
As for `CC1CCC2C(C)C(OCc3ccc(COC4OC5OC6(C)CCC7C(C)CCC(C4C)C57OO6)cc3)OC3OC4(C)CCC1C32OO4` (centres unmarked) [AJ-004], the SI in data set [1] was greater than 8. In addition, the EC50 in data set [1] (setting [7]) is 16 ± 4 µM; in data set [2] it was 3.2 ± 2.4 µM. For the same molecule, in data set [2] (subgenomic replicon system), the “fold more efficient in inhibiting HCV replicon replication compared to the monomer AJ-001” value is roughly 3 fold. Also, the “fold more potent than the monomer AJ-002” value in data set [2] (subgenomic replicon system) is on record as roughly 10 fold. In addition, the CC50 at 3 days in data set [3] and in data set [4] (setting [8]) was greater than 133 µM throughout.
In data set [1], `C[C@@H]1CC[C@H]2[C@@H](C)C(=O)O[C@@H]3O[C@@]4(C)CC[C@@H]1[C@]32OO4` [ART, Artemisinin, reference compound] showed an SI greater than 2. Further, the “potentiation of antiviral activity by Hemin in the HCVcc system” value in data set [1] (Hemin at 5 µM) was determined as 2 fold. Further, the EC50 in data set [1] (setting [7]) stood at 167 ± 38 µM; in data set [2], 75 ± 7 µM. The “fold-change of EC50 with Hemin (5 µM)” value in data set [2] came to 8 fold. For the same molecule, the CC50 at 3 days in data set [3] and in data set [4] (setting [8]) was greater than 400 µM in each case. Also, the “host cell proliferation and cell viability at the highest concentration tested” value in data set [5] (400 µM, HCVcc system cells) is on record as “not affected”. Further, the “effect of the combination with TEMPO” value in data set [6] is listed as “marginaly antagonistic effect”.
Turning to `CO[C@H]1O[C@@H]2O[C@@]3(C)CC[C@H]4[C@H](C)CC[C@@H]([C@H]1C)[C@@]24OO3` [Artemether], the 50% cytotoxic concentration (CC50) (commonly the concentration giving 50% cytotoxicity) at 3 days in data set [4] (setting [8]) is less than 6 µM.
Still for that read-out and setting: the result for `C[C@H]1[C@H](OC(=O)CCC(=O)O)O[C@@H]2O[C@@]3(C)CC[C@H]4[C@H](C)CC[C@@H]1[C@@]24OO3` [Artesunate] reads less than 6 µM; that for `C[C@H]1[C@@H](O)O[C@@H]2O[C@@]3(C)CC[C@H]4[C@H](C)CC[C@@H]1[C@@]24OO3` [Dihydroartemisinin], less than 6 µM.
For `CC(=O)N[C@@H](CS)C(=O)O` [L-NAC, L-N-acetylcysteine, reference compound], the “HCV RNA replication with L-NAC alone” value in data set [1] (L-NAC alone at the concentration tested, printed as HCVcc replication) was 98 % of UTC.
With `CC1(C)CCCC(C)(C)N1[O]` [TEMPO, 2,2,6,6-tetramethyl-1-piperidinyloxy, reference compound], the “effect of TEMPO alone on the replication of HCV” value in data set [2] (HCV replicon system, concentrations up to 200 µM) was “no effect”.
Regarding `CC(=O)OC1OC2OC3(C)CCC4C(C)CCC(C1C)C24OO3` (centres unmarked) [TVN2], the EC50 in data set [1] (setting [7]) is greater than 70 µM; in data set [2], 25 ± 13 µM. Further, the “fold-change of EC50 with Hemin (5 µM)” value in data set [2] is given as “+4 fold”. The same molecule gave a CC50 at 3 days in data set [3] of 36 ± 7 µM.
`C=COC1OC2OC3(C)CCC4C(C)CCC(C1C)C24OO3` (centres unmarked) [TVN4] gave an SI in data set [1] greater than 2. Besides, the EC50 was found to be 59 ± 6 µM in data set [1] (setting [7]), 52 ± 6 µM in data set [1] (setting [9]) and 36 ± 16 µM in data set [2]. Also, the “fold-change of EC50 with Hemin (5 µM)” value in data set [2] is recorded as “+2 fold”. For the same molecule, the 50% cytotoxic concentration (CC50) at 3 days is 123 ± 14 µM in data set [3] and greater than 133 µM in data set [4] (setting [8]). In addition, the “effect of the combination with TEMPO” value in data set [6] is on record as “marginaly antagonistic effect”.
Take `CC1CCC2C(C)C(OC(=O)c3ccccc3)OC3OC4(C)CCC1C32OO4` (centres unmarked) [TVN6]: the EC50 in data set [1] (setting [7]) was greater than 70 µM; in data set [2], 3.6 ± 2.3 µM. In data set [3], this molecule showed a cytotoxic concentration (CC50) at 3 days of 40 ± 20 µM.
`CCC[C@H](NC(=O)[C@@H]1[C@H]2CCC[C@H]2CN1C(=O)[C@@H](NC(=O)[C@@H](NC(=O)c1cnccn1)C1CCCCC1)C(C)(C)C)C(=O)C(=O)NC1CC1` [VX-950, reference compound] returned an SI in data set [1] greater than 50. Also, in data set [1] (setting [7]), the EC50 came out at 0.2 ± 0.1 µM. Moreover, in data set [4], the 50% cytotoxic concentration (CC50) at 3 days is greater than 10 µM.
As for Hemin [reference compound], in data set [1] (setting [9]), the EC50 was 8 ± 0.6 µM. The “concentration not toxic to Huh 7.5.1” value in data set [5] (Hemin alone) was greater than 50 µM.
